# Reference: US9056874B2, “Complement pathway modulators and uses thereof” (NOVARTIS AG, priority 2012, dated 2015)
# Molecular target: factor B (Homo sapiens, UniProt P00751)
# Assay: factor B inhibition assay of Biological Example 1
# Format: biochemical
# Design: CVF-Bb complex prepared from purified cobra venom factor (1 μM), recombinant human complement factor B; made in house; host or cells: drosophila cells (factor B); E. coli (factor D used to form the complex)
# Settings: IC50 (nM), assay of Biological Example 1 (Table 1)
# Chain of factor B (P00751 260-764 limits assumed): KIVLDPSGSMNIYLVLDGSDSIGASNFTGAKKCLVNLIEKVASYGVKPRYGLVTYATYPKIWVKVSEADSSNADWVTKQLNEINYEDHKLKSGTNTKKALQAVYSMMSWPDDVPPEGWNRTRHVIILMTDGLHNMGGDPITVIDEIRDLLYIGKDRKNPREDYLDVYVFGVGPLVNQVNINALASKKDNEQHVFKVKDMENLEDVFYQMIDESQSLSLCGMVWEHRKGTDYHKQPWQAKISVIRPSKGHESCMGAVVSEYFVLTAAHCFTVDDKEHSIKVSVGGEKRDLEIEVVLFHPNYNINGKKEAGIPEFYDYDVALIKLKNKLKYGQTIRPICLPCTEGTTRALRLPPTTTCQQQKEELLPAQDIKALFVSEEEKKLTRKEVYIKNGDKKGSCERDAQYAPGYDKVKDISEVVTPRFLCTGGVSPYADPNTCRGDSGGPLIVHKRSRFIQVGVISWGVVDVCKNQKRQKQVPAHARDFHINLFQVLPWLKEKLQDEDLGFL
# Chain of factor B (Q91132 23-649 partner limits assumed): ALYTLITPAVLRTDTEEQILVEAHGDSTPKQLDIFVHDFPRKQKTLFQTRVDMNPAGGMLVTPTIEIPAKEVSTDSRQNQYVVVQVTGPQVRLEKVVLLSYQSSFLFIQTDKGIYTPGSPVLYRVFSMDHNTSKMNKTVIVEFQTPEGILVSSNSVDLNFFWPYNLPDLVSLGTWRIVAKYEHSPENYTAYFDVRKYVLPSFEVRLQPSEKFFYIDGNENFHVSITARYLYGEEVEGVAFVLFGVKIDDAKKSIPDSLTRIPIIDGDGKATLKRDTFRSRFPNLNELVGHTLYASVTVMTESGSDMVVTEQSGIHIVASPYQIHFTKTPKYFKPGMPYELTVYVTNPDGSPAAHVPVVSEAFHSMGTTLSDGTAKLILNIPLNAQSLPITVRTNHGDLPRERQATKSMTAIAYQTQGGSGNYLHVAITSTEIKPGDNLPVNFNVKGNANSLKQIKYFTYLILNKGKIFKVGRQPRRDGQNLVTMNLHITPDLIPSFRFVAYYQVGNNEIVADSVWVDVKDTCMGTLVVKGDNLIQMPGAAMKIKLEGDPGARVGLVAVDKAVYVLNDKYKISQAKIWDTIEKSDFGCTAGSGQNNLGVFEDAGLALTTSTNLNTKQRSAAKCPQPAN
# Chain of factor B (Q91132 733-984 partner limits assumed): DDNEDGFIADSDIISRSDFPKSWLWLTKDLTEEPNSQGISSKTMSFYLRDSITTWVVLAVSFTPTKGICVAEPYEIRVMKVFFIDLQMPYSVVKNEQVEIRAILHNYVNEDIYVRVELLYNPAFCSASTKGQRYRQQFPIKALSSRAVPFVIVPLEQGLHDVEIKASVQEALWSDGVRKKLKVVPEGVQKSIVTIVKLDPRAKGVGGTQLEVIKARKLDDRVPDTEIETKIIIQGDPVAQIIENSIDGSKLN
# Chain of factor B (Q91132 1264-1642 partner limits assumed): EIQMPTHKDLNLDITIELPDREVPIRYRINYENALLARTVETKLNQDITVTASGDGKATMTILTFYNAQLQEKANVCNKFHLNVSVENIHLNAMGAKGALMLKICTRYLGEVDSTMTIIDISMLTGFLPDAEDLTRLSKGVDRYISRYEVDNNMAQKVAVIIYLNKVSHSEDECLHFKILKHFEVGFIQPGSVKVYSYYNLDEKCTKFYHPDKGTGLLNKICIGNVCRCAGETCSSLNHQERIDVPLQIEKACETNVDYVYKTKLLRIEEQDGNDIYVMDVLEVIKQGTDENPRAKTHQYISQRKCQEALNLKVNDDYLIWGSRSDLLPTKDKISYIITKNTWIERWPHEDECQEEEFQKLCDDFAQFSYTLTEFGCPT
row,SMILES,IC50
1,"CCOc1cc(C)c2[nH]ccc2c1C(O)c1nc2cc(C#N)ccc2[nH]1 (single isomer, unassigned; (-)) [24-C b) (−), (−)-2-((5-ethoxy-7-methyl-1H-indol-4-yl)(hydroxy)methyl)-1H-benzo[d]imidazole-5-carbonitrile]",600 nM
2,"Cc1cc(OC(C)C)c(C(O)c2nc3cc(C#N)ccc3[nH]2)c2cc[nH]c12 (single isomer, unassigned; (-)) [24-D b) (−), (−)-2-(hydroxy(5-isopropoxy-7-methyl-1H-indol-4-yl)methyl)-1H-benzo[d]imidazole-5-carbonitrile]",490 nM
3,"CCOc1cc(C)c2[nH]ccc2c1C(C)(O)c1nc2cc(C#N)ccc2[nH]1 (single isomer, unassigned; (-)) [26-D b) (−), (−)-2-(1-(5-ethoxy-7-methyl-1H-indol-4-yl)-1-hydroxyethyl)-1H-benzo[d]imidazole-5-carbonitrile]",440 nM
4,"Cc1cc(OC(C)C)c(C(C)(O)c2nc3cc(C#N)ccc3[nH]2)c2cc[nH]c12 (single isomer, unassigned; (-)) [26-E b) (−), (−)-2-(1-hydroxy-1-(5-isopropoxy-7-methyl-1H-indol-4-yl)ethyl)-1H-benzo[d]imidazole-5-carbonitrile]",170 nM
5,"CCC(O)(c1nc2cc(C#N)ccc2[nH]1)c1c(OC(C)C)cc(C)c2[nH]ccc12 (single isomer, unassigned; (-)) [26-F b) (−), (−)-2-(1-hydroxy-1-(5-isopropoxy-7-methyl-1H-indol-4-yl)propyl)-1H-benzo[d]imidazole-5-carbonitrile]",380 nM
6,"Cc1cc(OCC2CC2)c(C(C)(O)c2nc3cc(C#N)ccc3[nH]2)c2cc[nH]c12 (single isomer, unassigned; (-)) [26-G b) (−), (−)-2-(1-(5-(cyclopropylmethoxy)-7-methyl-1H-indol-4-yl)-1-hydroxyethyl)-1H-benzo[d]imidazole-5-carbonitrile]",4380 nM
7,"[2H]C([2H])([2H])C(OC)(c1nc2cc(C#N)ccc2[nH]1)c1c(OC)cc(C)c2[nH]ccc12 (single isomer, unassigned; (-)) [27-E b) (−), (−)-2-((^2H3)methyl(methoxy)(5-methoxy-7-methyl-1H-indol-4-yl)methyl)-1H-benzo[d]imidazole-5-carbonitrile]",4 nM
8,"[2H]C([2H])([2H])OC(C)(c1nc2cc(C#N)ccc2[nH]1)c1c(OC)cc(C)c2[nH]ccc12 (single isomer, unassigned; (-)) [27-F b) (−), (−)-2-(1-(^2H3)methoxy-1-(5-methoxy-7-methyl-1H-indol-4-yl)ethyl)-1H-benzo[d]imidazole-5-carbonitrile]",9 nM
9,"COc1cc(C)c2[nH]cc(Cl)c2c1C(O)c1nc2cc(C#N)ccc2[nH]1 (single isomer, unassigned; (-)) [28-C b) (−), (−)-2-((3-chloro-5-methoxy-7-methyl-1H-indol-4-yl)(hydroxy)methyl)-1H-benzo[d]imidazole-5-carbonitrile]",140 nM
10,"COc1cc(C)c2[nH]ccc2c1C(O)(c1nc2cc(C#N)ccc2[nH]1)C(F)(F)F (single isomer, unassigned; (-)) [33-B b) (−), (−)-2-(2,2,2-trifluoro-1-hydroxy-1-(5-methoxy-7-methyl-1H-indol-4-yl)ethyl)-1H-benzo[d]imidazole-5-carbonitrile]",50 nM
11,"COc1cc(C)c2[nH]ccc2c1C(OC)(c1nc2cc(C#N)ccc2[nH]1)C(F)(F)F (single isomer, unassigned; (-)) [34-B b) (−), (−)-2-(2,2,2-trifluoro-1-methoxy-1-(5-methoxy-7-methyl-1H-indol-4-yl)ethyl)-1H-benzo[d]imidazole-5-carbonitrile]",10 nM
12,"COc1cc(C)c2[nH]ccc2c1C(OCC(=O)O)(c1nc2cc(C#N)ccc2[nH]1)C(F)(F)F (single isomer, unassigned; (-)) [35-C (−), (−)-2-(1-(5-cyano-1H-benzo[d]imidazol-2-yl)-2,2,2-trifluoro-1-(5-methoxy-7-methyl-1H-indol-4-yl)ethoxy)acetic acid]",40 nM
13,"CNC(c1nc2cc(C#N)ccc2[nH]1)(c1c(OC)cc(C)c2[nH]ccc12)C(F)(F)F (single isomer, unassigned; (-)) [38-B b) (−), (−)-2-(2,2,2-trifluoro-1-(5-methoxy-7-methyl-1H-indol-4-yl)-1-(methylamino)ethyl)-1H-benzo[d]imidazole-5-carbonitrile]",8 nM
14,"CNC(C)(c1nc2cc(C#N)ccc2[nH]1)c1c(OC)cc(C)c2[nH]ccc12 (single isomer, unassigned; (-)) [42-D b) (−), (−)-2-(1-(5-methoxy-7-methyl-1H-indol-4-yl)-1-(methylamino)ethyl)-1H-benzo[d]imidazole-5-carbonitrile]",5 nM
15,"Cc1cc(C)c2[nH]ccc2c1C(O)c1nc2cc(C#N)ccc2[nH]1 (single isomer, unassigned; (-)) [64-C b) (−), (−)-2-((5,7-dimethyl-1H-indol-4-yl)(hydroxy)methyl)benzo[d]imidazole-5-carbonitrile]",60 nM
16,"Cc1cc(CO)c(C(O)c2nc3cc(C#N)ccc3[nH]2)c2cc[nH]c12 (single isomer, unassigned; (-)) [65-D b) (−), (−)-2-(hydroxy(5-(hydroxymethyl)-7-methyl-1H-indol-4-yl)methyl)-1H-benzo[d]imidazole-5-carbonitrile]",270 nM
17,"CCOCc1cc(C)c2[nH]ccc2c1C(O)c1nc2cc(C#N)ccc2[nH]1 (single isomer, unassigned; (-)) [66-D b) (−), (−)-2-((5-(ethoxymethyl)-7-methyl-1H-indol-4-yl)(hydroxy)methyl)-1H-benzo[d]imidazole-5-carbonitrile]",5110 nM
18,"CCc1cc(C)c2[nH]ccc2c1C(O)c1nc2cc(C#N)ccc2[nH]1 (single isomer, unassigned; (-)) [67-A b) (−), (−)-2-((5-ethyl-7-methyl-1H-indol-4-yl)(hydroxy)methyl)-1H-benzo[d]imidazole-5-carbonitrile]",160 nM
19,"Cc1cc(CC(C)C)c(C(O)c2nc3cc(C#N)ccc3[nH]2)c2cc[nH]c12 (single isomer, unassigned; (-)) [67-C b) (−), (−)-2-(hydroxy(5-(isobutyl)-7-methyl-1H-indol-4-yl)methyl)-1H-benzo[d]imidazole-5-carbonitrile]",6750 nM
20,"Cc1cc(C(C)C)c(C(O)c2nc3cc(C#N)ccc3[nH]2)c2cc[nH]c12 (single isomer, unassigned; (-)) [67-D b) (−), (−)-2-(hydroxy(5-isopropyl-7-methyl-1H-indol-4-yl)methyl)-1H-benzo[d]imidazole-5-carbonitrile]",60 nM
21,"Cc1cc(Cl)c(C(O)c2nc3cc(C#N)ccc3[nH]2)c2cc[nH]c12 (single isomer, unassigned; (-)) [67-E b) (−), (−)-2-((5-chloro-7-methyl-1H-indol-4-yl)(hydroxy)methyl)-1H-benzo[d]imidazole-5-carbonitrile]",1180 nM
22,"Cc1cc(C)c2[nH]ccc2c1C(O)c1nc2c(C)c(C#N)ccc2[nH]1 (single isomer, unassigned; (-)) [67-G b) (−), (−)-2-((5,7-dimethyl-1H-indol-4-yl)(hydroxy)methyl)-4-methyl-1H-benzo[d]imidazole-5-carbonitrile]",570 nM
23,"CCc1cc(C)c2[nH]ccc2c1C(OC)c1nc2cc(C#N)ccc2[nH]1 (single isomer, unassigned; (-)) [70-D b) (−), (−)-2-((5-ethyl-7-methyl-1H-indol-4-yl)(methoxy)methyl)-1H-benzo[d]imidazole-5-carbonitrile]",480 nM
24,"COC(c1nc2cc(C#N)ccc2[nH]1)c1c(CC(C)C)cc(C)c2[nH]ccc12 (single isomer, unassigned; (-)) [71 b) (−), (−)-2-((5-isobutyl-7-methyl-1H-indol-4-yl)(methoxy)methyl)-1H-benzo[d]imidazole-5-carbonitrile]",4590 nM
25,"Cc1cc(C)c2[nH]ccc2c1C(C)(O)c1nc2cc(C#N)ccc2[nH]1 (single isomer, unassigned; (-)) [76-B b) (−), (−)-2-(1-(5,7-Dimethyl-1H-indol-4-yl)-1-hydroxyethyl)-1H-benzo[d]imidazole-5-carbonitrile]",190 nM
26,"CCc1cc(C)c2[nH]ccc2c1C(C)(O)c1nc2cc(C#N)ccc2[nH]1 (single isomer, unassigned; (-)) [77-C b) (−), (−)-2-(1-(5-ethyl-7-methyl-1H-indol-4-yl)-1-hydroxyethyl)-1H-benzo[d]imidazole-5-carbonitrile]",20 nM
27,"Cc1cc(C(C)C)c(C(C)(O)c2nc3cc(C#N)ccc3[nH]2)c2cc[nH]c12 (single isomer, unassigned; (-)) [79-B b) (−), (−)-2-(1-hydroxy-1-(5-isopropyl-7-methyl-1H-indol-4-yl)ethyl)-1H-benzo[d]imidazole-5-carbonitrile]",260 nM
28,"Cc1cc(C2CC2)c(C(C)(O)c2nc3cc(C#N)ccc3[nH]2)c2cc[nH]c12 (single isomer, unassigned; (-)) [79-C b) (−), (−)-2-(1-(5-cyclopropyl-7-methyl-1H-indol-4-yl)-1-hydroxyethyl)-1H-benzo[d]imidazole-5-carbonitrile]",6 nM
29,"Cc1cc(CC(C)C)c(C(C)(O)c2nc3cc(C#N)ccc3[nH]2)c2cc[nH]c12 (single isomer, unassigned; (-)) [79-D b) (−), (−)-2-(1-hydroxy-1-(5-isobutyl-7-methyl-1H-indol-4-yl)ethyl)-1H-benzo[d]imidazole-5-carbonitrile]",310 nM
30,"Cc1cc(Cl)c(C(C)(O)c2nc3cc(C#N)ccc3[nH]2)c2cc[nH]c12 (single isomer, unassigned; (-)) [79-E b) (−), (−)-2-(1-(5-chloro-7-methyl-1H-indol-4-yl)-1-hydroxyethyl)-1H-benzo[d]imidazole-5-carbonitrile]",350 nM
